Source: PubChem BioAssay AID743310 (Sanford-Burnham Center for Chemical Genomics, 2014)
Calls of active or inactive are those of the source.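 The calls were made as follows: active = IC50 at or below 20 µM; inactive = the rest.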

molecular target: Dual specificity protein phosphatase 3 (Homo sapiens) (UniProt P51452); experiment: VHR1 phosphatase inhibition, selectivity check, SAR follow-up, selectivity assay for LMPTP inhibitor project, biochemical, fluorescence, OMFP substrate (AID 743310); details: recombinant VHR, OMFP fluorogenic substrate, 50 min
Sequence (P51452 whole entry, looked up): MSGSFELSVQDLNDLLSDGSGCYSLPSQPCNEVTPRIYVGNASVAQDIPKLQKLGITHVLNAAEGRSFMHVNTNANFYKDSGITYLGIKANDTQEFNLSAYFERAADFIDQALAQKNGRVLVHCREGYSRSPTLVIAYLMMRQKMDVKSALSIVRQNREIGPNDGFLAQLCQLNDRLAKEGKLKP

Row | IC50 | Compound
1 | > 80 µM (inactive) | Clc1cccc(-c2cc(NCCCN3CCCCC3)c3ccccc3n2)c1
2 | > 80 µM (inactive) | Cc1ccc2nc(-c3ccccc3)cc(NCCCN3CCCCC3)c2c1
3 | > 80 µM (inactive) | c1ccc(-c2nc(N3CCCC3)c3ccccc3n2)cc1
4 | > 80 µM (inactive) | CC(C)OCCCNc1nc(-c2ccccc2)nc2ccccc12
5 | > 80 µM (inactive) | Fc1ccccc1-c1nc(NCCCN2CCOCC2)c2ccccc2n1
6 | > 80 µM (inactive) | CCCCNc1nc(-c2ccccc2)nc2ccccc12
7 | > 80 µM (inactive) | c1ccc(-c2nc(N3CCCCC3)c3ccccc3n2)cc1
8 | > 80 µM (inactive) | Fc1ccc(-c2cc(NCCCN3CCCCC3)c3ccccc3n2)cc1
9 | > 80 µM (inactive) | c1ccc(-c2cc(NCCN3CCCCC3)c3ccccc3n2)cc1
10 | > 80 µM (inactive) | COc1ccccc1-c1cc(NCCCN2CCCCC2)c2ccccc2n1
11 | > 80 µM (inactive) | c1ccc(-c2cc(NCCCN3CCCCC3)c3ccccc3n2)cc1
12 | > 80 µM (inactive) | c1ccc2c(NCCCN3CCCCC3)cc(-c3ccncc3)nc2c1
13 | > 80 µM (inactive) | Clc1ccccc1-c1cc(NCCCN2CCCCC2)c2ccccc2n1
14 | > 80 µM (inactive) | c1ccc(-c2nc(NC3CCCCC3)c3ccccc3n2)cc1
15 | > 80 µM (inactive) | c1ccc(-c2nc(NCCN3CCOCC3)c3ccccc3n2)cc1
16 | > 80 µM (inactive) | CN(C)CCNc1nc(-c2ccccc2)nc2ccccc12
17 | > 80 µM (inactive) | Fc1cccc(-c2cc(NCCCN3CCCCC3)c3ccccc3n2)c1
18 | > 80 µM (inactive) | c1ccc(-c2nc(NCCN3CCCCC3)c3ccccc3n2)cc1
19 | > 80 µM (inactive) | Fc1ccc2nc(-c3ccccc3)cc(NCCCN3CCCCC3)c2c1
20 | > 80 µM (inactive) | c1ccc(-c2nc(NCCCN3CCCCC3)c3ccccc3n2)cc1
21 | > 80 µM (inactive) | c1ccc(-c2nc(NCCCn3ccnc3)c3ccccc3n2)cc1
22 | > 80 µM (inactive) | c1ccc(-c2nc(NCCN3CCCC3)c3ccccc3n2)cc1
23 | > 80 µM (inactive) | c1ccc(-c2cc(SCCCN3CCCCC3)c3ccccc3n2)cc1
24 | > 80 µM (inactive) | c1ccc(-c2nc(N3CCCCCC3)c3ccccc3n2)cc1
25 | > 80 µM (inactive) | c1ccc(-c2cc(OCCCN3CCCCC3)c3ccccc3n2)cc1
26 | > 80 µM (inactive) | Cc1cccc(-c2nc(NCCCN3CCOCC3)c3ccccc3n2)c1
27 | > 80 µM (inactive) | c1ccc(-c2nc(NCCCN3CCOCC3)c3ccccc3n2)cc1
28 | > 80 µM (inactive) | c1ccc(-c2cc(NCCN3CCCC3)c3ccccc3n2)cc1
29 | > 80 µM (inactive) | Brc1ccc2nc(-c3ccccc3)cc(NCCCN3CCCCC3)c2c1

Further lines, the compound ahead of its results:

Row | Compound | IC50
30 | CC1CCN(c2nc(-c3ccccc3)nc3ccccc23)CC1 | > 80 µM (inactive)
31 | CN1CCN(c2nc(-c3ccccc3)nc3ccccc23)CC1 | > 80 µM (inactive)
32 | Cc1ccc(-c2nc(NCCN3CCOCC3)c3ccccc3n2)cc1 | > 80 µM (inactive)
33 | CN(C)CCNc1cc(-c2ccccc2)nc2ccccc12 | > 80 µM (inactive)
34 | Fc1ccccc1-c1nc(NC2CCCC2)c2ccccc2n1 | > 80 µM (inactive)
35 | CCc1nc(N)nc(N)c1-c1ccc(Cl)cc1 | > 80 µM (inactive)
36 | CC(C)CNc1nc(-c2ccccc2)nc2ccccc12 | > 80 µM (inactive)
37 | COc1cccc(-c2cc(NCCCN3CCCCC3)c3ccccc3n2)c1 | > 80 µM (inactive)
38 | c1ccc(-c2nc(NC3CC3)c3ccccc3n2)cc1 | > 80 µM (inactive)
39 | O=C(OCCNc1nc(-c2ccccc2)nc2ccccc12)c1cccnc1 | > 80 µM (inactive)
40 | c1ccc(-c2nc(N3CCSCC3)c3ccccc3n2)cc1 | > 80 µM (inactive)
41 | c1ccc(-c2cc(NCCN3CCOCC3)c3ccccc3n2)cc1 | > 80 µM (inactive)
42 | c1ccc(-c2nc(NC3CCCC3)c3ccccc3n2)cc1 | > 80 µM (inactive)
43 | COc1ccc(-c2cc(NCCCN3CCCCC3)c3ccccc3n2)cc1 | > 80 µM (inactive)
44 | CC(C)Nc1nc(-c2ccccc2)nc2ccccc12 | > 80 µM (inactive)
45 | c1ccc(-c2cc(NCCCN3CCOCC3)c3ccccc3n2)cc1 | > 80 µM (inactive)
46 | Clc1ccc(-c2cc(NCCCN3CCCCC3)c3ccccc3n2)cc1 | > 80 µM (inactive)
47 | Cc1c(CCC(=O)O)c(=O)oc2c(C)c(OCc3ccccc3Cl)ccc12 | 5.21 µM
48 | Clc1cccc(Cl)c1Cn1cnc(=NCc2ccco2)c2[nH]cnc21 | > 80 µM (inactive)
49 | Cc1ccc(-c2nc(NCc3cccnc3)c3ccccc3n2)cc1 | > 80 µM (inactive)
50 | c1ccc(-c2nc(N3CCOCC3)c3ccccc3n2)cc1 | > 80 µM (inactive)
51 | Nc1nc(N)c(Cc2ccc(Cl)cc2Cl)c(N)n1 | > 80 µM (inactive)
52 | COc1ccccc1CNc1ncnc2ccsc12 | > 80 µM (inactive)
53 | CCN(CC)c1nc(-c2ccccc2)nc2ccccc12 | > 80 µM (inactive)
54 | COc1cc2nc(-c3ccccc3)cc(NCCCN3CCCCC3)c2cc1OC | > 80 µM (inactive)
55 | c1ccc(-c2nc(NCc3cccnc3)c3ccccc3n2)cc1 | > 80 µM (inactive)
56 | c1ccc(-c2cc(N3CCCCC3)c3ccccc3n2)cc1 | > 80 µM (inactive)
57 | O=C(OCCNc1nc(-c2ccccc2)nc2ccccc12)c1ccncc1 | > 80 µM (inactive)
58 | FC(F)(F)c1cccc(-c2cc(NCCCN3CCCCC3)c3ccccc3n2)c1 | > 80 µM (inactive)
59 | Cc1ccc(-c2cc(NCCCN3CCCCC3)c3ccccc3n2)cc1 | > 80 µM (inactive)
